Earlier results as cited in patent US20060210492A1 (priority 2005, published 2006).

solubility in water: practically insoluble
SMILES: CO[C@H]1/C=C/O[C@@]2(C)Oc3c(C)c(O)c4c(O)c(c5c(nc6cc(C)ccn65)c4c3C2=O)NC(=O)/C(C)=C\C=C\[C@H](C)[C@H](O)[C@@H](C)[C@@H](O)[C@@H](C)[C@H](OC(C)=O)[C@@H]1C [rifaximin, (2S,16Z,18E,20S,21S,22R,23R,24R,25S,26S,27S,28E)-5,6,21,23,25-pentahydroxy-27-methoxy-2,4,11,16,20,22,24,26-octamethyl-2,7-(epoxypentadeca-[1,11,13]trienimino)benzofuro[4,5-e]pyrido[1,2-a]-benzimidazole-1,15(2H)-dione,25-acetate]
